Data taken from ChEMBL document CHEMBL3885881, “DrugMatrix”.

Species: Rattus norvegicus
Test: DrugMatrix - Regimen: Daily Repeat
Format: toxicity, organism-based, Sprague-Dawley
Design: regimen Daily Repeat, gender Male, age 6-8 weeks
Settings: in vivo, po, route oral GAVAGE, […]; for ABSOLUTE BASOPHIL / ABSOLUTE EOSINOPHIL / ABSOLUTE LYMPHOCYTE / ABSOLUTE SEGMENTED NEUTROPHIL / BASOPHIL / EOSINOPHIL / ERYTHROCYTE COUNT / HEMATOCRIT / HEMOGLOBIN / LEUKOCYTE COUNT / LYMPHOCYTE / MEAN CORPUSCULAR HEMOGLOBIN / MEAN CORPUSCULAR HEMOGLOBIN CONCENTRATION / MEAN CORPUSCULAR VOLUME / MONOCYTE / NEUTROPHIL / NUCLEATED RED BLOOD CELLS / PLATELET COUNT: tissue Blood; for ALANINE AMINOTRANSFERASE / ALBUMIN / ALKALINE PHOSPHATASE / ASPARTATE AMINOTRANSFERASE / BLOOD UREA NITROGEN / CARBON DIOXIDE / CHLORIDE / CHOLESTEROL / CREATINE PHOSPHOKINASE / CREATININE / GLUCOSE / LACTATE DEHYDROGENASE / LIPASE / PHOSPHORUS / POTASSIUM / SODIUM / TOTAL BILIRUBIN / TOTAL PROTEIN / URIC ACID: tissue Plasma
[1] = 15 mg/kg, 120 h, dose level Low, time 5 day
[2] = 1200 mg/kg, 72 h, dose level High, time 3 day
[3] = 1200 mg/kg, 120 h, dose level High, time 5 day

With `CCC(C)(C)C(=O)O[C@H]1C[C@@H](C)C=C2C=C[C@H](C)[C@H](CC[C@@H]3C[C@@H](O)CC(=O)O3)[C@H]21` [SIMVASTATIN] the “ABSOLUTE BASOPHIL” value [1] was 0 CELLS/uL, the “ABSOLUTE EOSINOPHIL” value [1] was 0 CELLS/uL and the “ABSOLUTE LYMPHOCYTE” value [1] was 6051 CELLS/uL. For the same molecule, the “ABSOLUTE SEGMENTED NEUTROPHIL” value [1] was 802.33 CELLS/uL, the BASOPHIL [1] was 0% and the EOSINOPHIL [1] was 0%. For the same molecule, the “ERYTHROCYTE COUNT” value [1] was 5.09 x10E6/uL, the HEMATOCRIT [1] was 32.87% and the HEMOGLOBIN [1] was 12.87 G/DL. For the same molecule, the “LEUKOCYTE COUNT” value [1] was 6.93 x10E3/uL, the LYMPHOCYTE [1] was 87.67% and the “MEAN CORPUSCULAR HEMOGLOBIN” value [1] was 25.33 pg. The “MEAN CORPUSCULAR HEMOGLOBIN CONCENTRATION” value [1] was 39.2 G/DL, the “MEAN CORPUSCULAR VOLUME” value [1] was 64.63 fL and the MONOCYTE [1] was 1%. The NEUTROPHIL [1] was 11.33%, the “NUCLEATED RED BLOOD CELLS” value [1] was 0 /100WBC and the “PLATELET COUNT” value [1] was 1251.33 x10E3/uL. The “ALANINE AMINOTRANSFERASE” value [1] was 57.67 u/L, the ALBUMIN [1] was 4 G/DL and the “ALKALINE PHOSPHATASE” value [1] was 335.33 u/L. The “ASPARTATE AMINOTRANSFERASE” value [1] was 77.67 u/L, the “BLOOD UREA NITROGEN” value [1] was 14.67 mg/dL and the “CARBON DIOXIDE” value [1] was 30.67 mmol/L. For the same molecule, the CHLORIDE [1] was 99 MEQ/L, the CHOLESTEROL [1] was 66.33 mg/dL and the “CREATINE PHOSPHOKINASE” value [1] was 168.67 u/L. The CREATININE [1] was 0.17 mg/dL, the GLUCOSE [1] was 178.67 mg/dL and the “LACTATE DEHYDROGENASE” value [1] was 64 u/L. It also gave an LIPASE [1] of 9.33 u/L, a PHOSPHORUS [1] of 11.6 mg/dL and a POTASSIUM [1] of 5.71 MEQ/L. The SODIUM [1] was 144.13 MEQ/L, the “TOTAL BILIRUBIN” value [1] was 0.1 mg/dL and the “TOTAL PROTEIN” value [1] was 5.6 G/DL. For the same molecule, the “URIC ACID” value [1] was 0.67 mg/dL, the “ABSOLUTE BASOPHIL” value [2] was 0 CELLS/uL and the “ABSOLUTE EOSINOPHIL” value [2] was 0 CELLS/uL. The “ABSOLUTE LYMPHOCYTE” value [2] was 6224.67 CELLS/uL, the “ABSOLUTE SEGMENTED NEUTROPHIL” value [2] was 3273.67 CELLS/uL and the BASOPHIL [2] was 0%. For the same molecule, the EOSINOPHIL [2] was 0%, the “ERYTHROCYTE COUNT” value [2] was 6.06 x10E6/uL and the HEMATOCRIT [2] was 37.77%. The HEMOGLOBIN [2] was 14.83 G/DL, the “LEUKOCYTE COUNT” value [2] was 9.57 x10E3/uL and the LYMPHOCYTE [2] was 66%. For the same molecule, the “MEAN CORPUSCULAR HEMOGLOBIN” value [2] was 24.57 pg, the “MEAN CORPUSCULAR HEMOGLOBIN CONCENTRATION” value [2] was 39.27 G/DL and the “MEAN CORPUSCULAR VOLUME” value [2] was 62.5 fL. For the same molecule, the MONOCYTE [2] was 0.67%, the NEUTROPHIL [2] was 33.33% and the “NUCLEATED RED BLOOD CELLS” value [2] was 0 /100WBC. The “PLATELET COUNT” value [2] was 1143.67 x10E3/uL, the “ALANINE AMINOTRANSFERASE” value [2] was 323.67 u/L and the ALBUMIN [2] was 4.43 G/DL. For the same molecule, the “ALKALINE PHOSPHATASE” value [2] was 403.67 u/L, the “ASPARTATE AMINOTRANSFERASE” value [2] was 291.33 u/L and the “BLOOD UREA NITROGEN” value [2] was 12 mg/dL. The “CARBON DIOXIDE” value [2] was 33 mmol/L, the CHLORIDE [2] was 97.67 MEQ/L and the CHOLESTEROL [2] was 46.33 mg/dL. The “CREATINE PHOSPHOKINASE” value [2] was 1429 u/L, the CREATININE [2] was 0.1 mg/dL and the GLUCOSE [2] was 174.33 mg/dL. The “LACTATE DEHYDROGENASE” value [2] was 212.33 u/L, the LIPASE [2] was 26 u/L and the PHOSPHORUS [2] was 7.2 mg/dL. The POTASSIUM [2] was 5.3 MEQ/L, the SODIUM [2] was 144.93 MEQ/L and the “TOTAL BILIRUBIN” value [2] was 0.17 mg/dL. For the same molecule, the “TOTAL PROTEIN” value [2] was 5.67 G/DL, the “URIC ACID” value [2] was 0.5 mg/dL and the “ABSOLUTE BASOPHIL” value [3] was 0 CELLS/uL. The “ABSOLUTE EOSINOPHIL” value [3] was 0 CELLS/uL, the “ABSOLUTE LYMPHOCYTE” value [3] was 2769 CELLS/uL and the “ABSOLUTE SEGMENTED NEUTROPHIL” value [3] was 4331 CELLS/uL. For the same molecule, the BASOPHIL [3] was 0%, the EOSINOPHIL [3] was 0% and the “ERYTHROCYTE COUNT” value [3] was 6.93 x10E6/uL. The HEMATOCRIT [3] was 43.8%, the HEMOGLOBIN [3] was 17.4 G/DL and the “LEUKOCYTE COUNT” value [3] was 7.1 x10E3/uL. For the same molecule, the LYMPHOCYTE [3] was 39%, the “MEAN CORPUSCULAR HEMOGLOBIN” value [3] was 25.1 pg and the “MEAN CORPUSCULAR HEMOGLOBIN CONCENTRATION” value [3] was 39.7 G/DL. For the same molecule, the “MEAN CORPUSCULAR VOLUME” value [3] was 63.2 fL, the MONOCYTE [3] was 0% and the NEUTROPHIL [3] was 61%. For the same molecule, the “NUCLEATED RED BLOOD CELLS” value [3] was 0 /100WBC, the “PLATELET COUNT” value [3] was 1317 x10E3/uL and the “ALANINE AMINOTRANSFERASE” value [3] was 285 u/L. For the same molecule, the ALBUMIN [3] was 4.7 G/DL, the “ALKALINE PHOSPHATASE” value [3] was 273 u/L and the “ASPARTATE AMINOTRANSFERASE” value [3] was 367 u/L. For the same molecule, the “BLOOD UREA NITROGEN” value [3] was 37 mg/dL, the “CARBON DIOXIDE” value [3] was 35 mmol/L and the CHLORIDE [3] was 82 MEQ/L. For the same molecule, the CHOLESTEROL [3] was 103 mg/dL, the “CREATINE PHOSPHOKINASE” value [3] was 1419 u/L and the CREATININE [3] was 0.1 mg/dL. The GLUCOSE [3] was 205 mg/dL, the “LACTATE DEHYDROGENASE” value [3] was 510 u/L and the LIPASE [3] was 55 u/L. It also gave a PHOSPHORUS [3] of 9 mg/dL, a POTASSIUM [3] of 4.84 MEQ/L and an SODIUM [3] of 136.7 MEQ/L. The “TOTAL BILIRUBIN” value [3] was 0.2 mg/dL, the “TOTAL PROTEIN” value [3] was 6.1 G/DL and the “URIC ACID” value [3] was 0.6 mg/dL.
